Measurements: ChEMBL document CHEMBL1128059, “Kelatorphan and related analogs: potent and selective inhibitors of leukotriene A4 hydrolase” (Bioorg Med Chem Lett, 1995)

Assays:
[1] = biological target: T1, Angiotensin-converting enzyme (Oryctolagus cuniculus, UniProt P12822); experiment: Inhibitory activity against rabbit lung angiotensin-converting enzyme(ACE)
T1 sequence (P12822 whole entry): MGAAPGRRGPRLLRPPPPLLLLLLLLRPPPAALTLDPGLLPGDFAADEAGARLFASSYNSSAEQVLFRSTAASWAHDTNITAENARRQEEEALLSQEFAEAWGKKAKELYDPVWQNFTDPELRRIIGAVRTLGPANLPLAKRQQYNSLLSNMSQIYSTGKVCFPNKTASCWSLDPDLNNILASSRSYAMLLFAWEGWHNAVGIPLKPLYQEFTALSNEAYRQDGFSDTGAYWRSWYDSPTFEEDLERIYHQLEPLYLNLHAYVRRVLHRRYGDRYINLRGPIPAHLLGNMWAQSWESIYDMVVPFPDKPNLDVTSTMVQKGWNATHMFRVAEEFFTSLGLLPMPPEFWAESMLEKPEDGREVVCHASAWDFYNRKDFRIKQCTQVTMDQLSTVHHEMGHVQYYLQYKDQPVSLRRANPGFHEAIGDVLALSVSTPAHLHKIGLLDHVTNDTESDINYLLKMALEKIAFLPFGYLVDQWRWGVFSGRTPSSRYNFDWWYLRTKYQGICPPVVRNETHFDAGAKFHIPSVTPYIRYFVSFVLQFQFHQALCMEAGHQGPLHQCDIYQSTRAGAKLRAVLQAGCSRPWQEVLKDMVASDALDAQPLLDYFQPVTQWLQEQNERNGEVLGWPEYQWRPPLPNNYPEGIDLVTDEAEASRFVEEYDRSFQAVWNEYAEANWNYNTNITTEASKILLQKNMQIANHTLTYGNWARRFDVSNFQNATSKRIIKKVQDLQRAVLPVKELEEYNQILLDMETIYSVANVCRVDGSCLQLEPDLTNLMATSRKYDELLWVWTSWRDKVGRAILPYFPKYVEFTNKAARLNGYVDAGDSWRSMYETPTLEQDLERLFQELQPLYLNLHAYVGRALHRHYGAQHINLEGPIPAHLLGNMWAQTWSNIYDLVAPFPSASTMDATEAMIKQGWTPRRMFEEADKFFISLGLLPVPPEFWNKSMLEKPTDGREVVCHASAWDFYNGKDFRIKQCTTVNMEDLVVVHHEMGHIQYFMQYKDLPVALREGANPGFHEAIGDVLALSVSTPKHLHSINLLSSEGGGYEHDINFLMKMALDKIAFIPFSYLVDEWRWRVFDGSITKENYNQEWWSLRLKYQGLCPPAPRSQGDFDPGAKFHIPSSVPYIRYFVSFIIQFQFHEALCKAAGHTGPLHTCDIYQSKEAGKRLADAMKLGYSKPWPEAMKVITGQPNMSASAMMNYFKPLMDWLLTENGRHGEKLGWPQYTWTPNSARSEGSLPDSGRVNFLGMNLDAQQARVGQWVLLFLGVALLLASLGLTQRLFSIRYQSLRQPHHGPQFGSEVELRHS

[2] = biological target: T2, Leukotriene A-4 hydrolase (Homo sapiens, UniProt P09960); experiment: Inhibitory activity against recombinant human Leukotriene A4 hydrolase
T2 sequence (P09960 whole entry): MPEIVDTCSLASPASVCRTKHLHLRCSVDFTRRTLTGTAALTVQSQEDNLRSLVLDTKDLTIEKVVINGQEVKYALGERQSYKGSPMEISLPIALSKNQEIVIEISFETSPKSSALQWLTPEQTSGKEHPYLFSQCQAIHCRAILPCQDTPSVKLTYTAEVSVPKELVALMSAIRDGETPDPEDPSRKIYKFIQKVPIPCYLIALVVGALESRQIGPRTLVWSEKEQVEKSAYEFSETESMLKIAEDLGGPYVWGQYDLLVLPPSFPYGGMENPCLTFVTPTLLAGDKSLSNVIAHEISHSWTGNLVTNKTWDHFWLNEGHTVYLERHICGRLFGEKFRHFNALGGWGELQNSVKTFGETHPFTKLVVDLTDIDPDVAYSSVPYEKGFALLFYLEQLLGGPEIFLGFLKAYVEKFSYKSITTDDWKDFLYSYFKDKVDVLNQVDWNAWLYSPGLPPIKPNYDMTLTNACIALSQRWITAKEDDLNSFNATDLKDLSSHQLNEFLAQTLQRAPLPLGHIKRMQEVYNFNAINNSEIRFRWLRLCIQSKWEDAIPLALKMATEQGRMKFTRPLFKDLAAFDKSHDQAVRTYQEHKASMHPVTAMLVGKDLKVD

[3] = Inhibitory activity against aminopeptidase
Neprilysin = biological target: T3, Neprilysin (Oryctolagus cuniculus, UniProt P08049); experiment: Inhibitory activity against rabbit kidney neutral endopeptidase (NEP)
T3 sequence (P08049 whole entry): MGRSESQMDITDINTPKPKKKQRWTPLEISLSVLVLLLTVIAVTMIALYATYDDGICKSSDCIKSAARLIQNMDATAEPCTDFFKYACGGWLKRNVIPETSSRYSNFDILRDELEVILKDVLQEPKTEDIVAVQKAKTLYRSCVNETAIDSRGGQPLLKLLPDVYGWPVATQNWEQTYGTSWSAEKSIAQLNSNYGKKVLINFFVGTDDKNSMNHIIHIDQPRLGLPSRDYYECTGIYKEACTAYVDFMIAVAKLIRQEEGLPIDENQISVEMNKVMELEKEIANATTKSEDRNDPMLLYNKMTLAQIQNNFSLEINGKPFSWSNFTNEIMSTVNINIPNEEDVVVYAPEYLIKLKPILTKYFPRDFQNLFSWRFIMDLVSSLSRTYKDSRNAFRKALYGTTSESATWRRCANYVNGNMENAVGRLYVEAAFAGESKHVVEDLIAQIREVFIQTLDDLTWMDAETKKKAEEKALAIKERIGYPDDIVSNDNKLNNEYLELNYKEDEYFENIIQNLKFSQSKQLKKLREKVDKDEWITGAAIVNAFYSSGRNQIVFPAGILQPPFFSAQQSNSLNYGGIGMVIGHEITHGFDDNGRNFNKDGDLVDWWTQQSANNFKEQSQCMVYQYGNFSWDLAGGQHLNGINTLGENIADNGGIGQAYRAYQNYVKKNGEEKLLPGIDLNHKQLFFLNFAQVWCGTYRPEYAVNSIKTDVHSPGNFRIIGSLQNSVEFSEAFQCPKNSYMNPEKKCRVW

[4] = biological target: T1, Angiotensin-converting enzyme; experiment: Inhibitory activity against rabbit lung angiotensin-converting enzyme (ACE)
[5] = biological target: T2, Leukotriene A-4 hydrolase; experiment: Inhibitory activity against LTA 4 hydrolase in aminopeptidase assay
[6] = biological target: T2, Leukotriene A-4 hydrolase; experiment: Inhibitory activity against LTA 4 hydrolase in epoxide hydrolase assay

IC50 [1]	Ki [5]	Ki [6]	SMILES	IC50 [2]	IC50 [3]	IC50 (Neprilysin)	IC50 [4]
20000 nM	–	–	C[C@H](NC(=O)[C@@H](CCC(=O)NO)Cc1ccccc1)C(=O)O	> 10000 nM	–	–	–
–	–	–	C[C@H](CS)C(=O)N1CCC[C@H]1C(=O)O [CAPTOPRIL]	10000 nM	2000 nM	–	–
–	–	–	C[C@H](NC(=O)[C@@H](CCS)CC1CCCCC1)C(=O)O	> 3000 nM	–	> 100000 nM	–
–	–	–	O=C(C[C@@H](Cc1ccccc1)C(=O)N[C@@H](Cc1c[nH]c2ccccc12)C(=O)O)NO	10 nM	5 nM	–	–
200 nM	–	–	C[C@H](NC(=O)C(CS)Cc1ccccc1)C(=O)O (stereo not given in full)	> 3000 nM	> 10000 nM	–	–
–	–	–	O=C(C[C@@H](Cc1ccccc1)C(=O)N1CCC[C@H]1C(=O)O)NO	30 nM	18 nM	> 36000 nM	3000 nM
> 100000 nM	–	–	C[C@@H](C(=O)O)N(C)C(=O)[C@@H](CC(=O)NO)Cc1ccccc1	3 nM	1 nM	3400 nM	–
–	10 nM	18 nM	C[C@H](NC(=O)[C@@H](CC(=O)NO)Cc1ccccc1)C(=O)O [KELATORPHAN]	5 nM	7 nM	46 nM	> 10000 nM
20000 nM	–	–	CSCC[C@@H](NC(=O)[C@@H](CC(=O)NO)Cc1ccccc1)C(=O)O	12 nM	2 nM	61000 nM	–
–	–	–	O=C(C[C@@H](Cc1ccccc1)C(=O)N1CCC[C@@H]1C(=O)O)NO	20000 nM	15000 nM	–	> 100000 nM
> 100000 nM	–	–	C[C@H](NC(=O)[C@@H](CC(=O)O)Cc1ccccc1)C(=O)O	300 nM	140 nM	–	–

SMILES	IC50 [1]	Ki [5]	Ki [6]	IC50 [2]	IC50 [3]	IC50 (Neprilysin)	IC50 [4]
C[C@H](NC(=O)[C@@H](CC(=O)NO)CC1CCCCC1)C(=O)O	> 100000 nM	–	–	5 nM	10 nM	2000 nM	–
O=C(C[C@@H](Cc1ccccc1)C(=O)N1CCCC[C@H]1C(=O)O)NO	40000 nM	–	–	8 nM	10 nM	17000 nM	–
O=C(C[C@@H](Cc1ccccc1)C(=O)N1CCCC[C@@H]1C(=O)O)NO	> 100000 nM	–	–	1800 nM	2300 nM	–	–
O=C(C[C@@H](Cc1ccccc1)C(=O)N[C@@H](CC1CCCCC1)C(=O)O)NO	> 100000 nM	–	–	10 nM	42 nM	104000 nM	–
